Paper PMC9781320 (Marine Drugs, 2022)
Positions of bridges follow the written chain, without caps; N, C: chain ends. Residues, ends and D or L forms follow the SMILES beside them.

Tests used:
GABABR-coupled CaV2.2 [1] = biological target: T1, GABABR-coupled CaV2.2 (Homo sapiens, UniProt O75899+Q9UBS5); assay: cell-based; design: species or system rat Cav2.2; conditions: for inhibition at 1 µM: HEK293, read-out: Inhibition Efficacy (1 µM)%, SEM; for IC50: IC50 (nM) (95% Confidence Interval)
T1 construct: expressed in transfected cells
T1 sequence (Q9UBS5 15-961 limits assumed): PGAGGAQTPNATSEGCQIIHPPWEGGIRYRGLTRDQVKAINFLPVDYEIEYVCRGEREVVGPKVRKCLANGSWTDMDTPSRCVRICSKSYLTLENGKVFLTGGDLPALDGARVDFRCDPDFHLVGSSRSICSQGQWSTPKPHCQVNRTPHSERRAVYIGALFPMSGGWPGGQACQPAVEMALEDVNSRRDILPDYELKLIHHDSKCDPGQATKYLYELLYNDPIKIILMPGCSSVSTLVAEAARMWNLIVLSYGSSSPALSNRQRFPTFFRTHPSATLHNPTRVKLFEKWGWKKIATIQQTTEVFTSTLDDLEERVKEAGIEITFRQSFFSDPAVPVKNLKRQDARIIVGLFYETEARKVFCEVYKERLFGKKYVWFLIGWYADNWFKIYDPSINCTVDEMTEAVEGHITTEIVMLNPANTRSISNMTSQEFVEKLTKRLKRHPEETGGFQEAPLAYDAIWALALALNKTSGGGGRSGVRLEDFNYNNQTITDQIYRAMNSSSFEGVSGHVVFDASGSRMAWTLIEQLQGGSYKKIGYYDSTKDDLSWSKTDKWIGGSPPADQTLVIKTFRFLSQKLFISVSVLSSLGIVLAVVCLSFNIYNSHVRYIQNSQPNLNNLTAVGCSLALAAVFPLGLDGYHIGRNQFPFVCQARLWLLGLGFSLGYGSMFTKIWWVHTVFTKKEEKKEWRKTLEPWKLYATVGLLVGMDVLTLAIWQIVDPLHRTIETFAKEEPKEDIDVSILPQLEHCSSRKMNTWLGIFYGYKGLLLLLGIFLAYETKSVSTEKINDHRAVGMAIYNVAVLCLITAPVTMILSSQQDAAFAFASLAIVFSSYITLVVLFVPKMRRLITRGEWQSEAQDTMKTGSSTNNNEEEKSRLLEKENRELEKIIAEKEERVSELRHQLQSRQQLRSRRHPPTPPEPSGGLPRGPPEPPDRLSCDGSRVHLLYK
T1 sequence (O75899 42-941): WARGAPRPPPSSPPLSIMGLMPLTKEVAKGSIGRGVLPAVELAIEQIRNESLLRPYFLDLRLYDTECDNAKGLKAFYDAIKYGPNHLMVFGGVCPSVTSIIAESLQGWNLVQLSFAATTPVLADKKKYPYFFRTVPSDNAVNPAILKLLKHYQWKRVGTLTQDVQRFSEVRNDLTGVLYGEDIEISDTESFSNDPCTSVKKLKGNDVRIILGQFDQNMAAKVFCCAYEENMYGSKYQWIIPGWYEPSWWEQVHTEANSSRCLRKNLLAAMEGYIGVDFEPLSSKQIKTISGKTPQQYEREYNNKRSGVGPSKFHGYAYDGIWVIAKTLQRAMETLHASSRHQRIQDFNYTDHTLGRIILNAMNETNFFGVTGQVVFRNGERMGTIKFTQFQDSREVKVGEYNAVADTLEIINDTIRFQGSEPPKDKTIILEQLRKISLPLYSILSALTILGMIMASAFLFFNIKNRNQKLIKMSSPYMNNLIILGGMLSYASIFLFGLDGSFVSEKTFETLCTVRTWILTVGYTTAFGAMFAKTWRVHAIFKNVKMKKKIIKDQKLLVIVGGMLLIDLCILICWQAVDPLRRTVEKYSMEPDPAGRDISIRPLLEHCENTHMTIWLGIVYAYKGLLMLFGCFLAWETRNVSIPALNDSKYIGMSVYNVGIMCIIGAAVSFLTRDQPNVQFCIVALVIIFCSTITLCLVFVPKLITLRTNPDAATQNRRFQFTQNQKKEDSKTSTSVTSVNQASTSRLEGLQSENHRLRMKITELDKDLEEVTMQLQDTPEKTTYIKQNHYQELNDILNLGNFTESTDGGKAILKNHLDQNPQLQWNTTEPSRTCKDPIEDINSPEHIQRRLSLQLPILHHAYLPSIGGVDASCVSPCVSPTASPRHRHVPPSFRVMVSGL

CaV2.2 = biological target: T2, CaV2.2 (Rattus norvegicus, UniProt Q02294); type: cell-based
T2 construct: expressed in transfected cells; host or cells: HEK293

α2β4 nAChR = biological target: T3, α2β4 nAChR (Rattus norvegicus, UniProt P12389+P12392); type: cell-based; conditions: SEM
T3 construct: expressed in transfected cells; host or cells: Xenopus oocytes, cRNA injected
T3 sequence (P12389 28-511 limits assumed): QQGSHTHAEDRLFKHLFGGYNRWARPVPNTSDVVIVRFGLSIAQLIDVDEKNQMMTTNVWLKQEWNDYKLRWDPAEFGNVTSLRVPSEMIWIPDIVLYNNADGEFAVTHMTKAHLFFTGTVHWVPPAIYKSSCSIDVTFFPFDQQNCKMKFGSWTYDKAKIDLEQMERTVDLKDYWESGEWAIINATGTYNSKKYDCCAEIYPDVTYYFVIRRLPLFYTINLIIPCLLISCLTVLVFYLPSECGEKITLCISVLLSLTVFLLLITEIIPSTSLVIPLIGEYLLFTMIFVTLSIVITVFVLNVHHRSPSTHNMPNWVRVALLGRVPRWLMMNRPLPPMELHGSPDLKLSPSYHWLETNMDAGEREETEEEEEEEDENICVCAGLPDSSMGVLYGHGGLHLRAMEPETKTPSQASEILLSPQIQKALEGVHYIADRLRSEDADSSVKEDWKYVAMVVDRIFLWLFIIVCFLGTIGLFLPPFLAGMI
T3 sequence (P12392 21-495 limits assumed): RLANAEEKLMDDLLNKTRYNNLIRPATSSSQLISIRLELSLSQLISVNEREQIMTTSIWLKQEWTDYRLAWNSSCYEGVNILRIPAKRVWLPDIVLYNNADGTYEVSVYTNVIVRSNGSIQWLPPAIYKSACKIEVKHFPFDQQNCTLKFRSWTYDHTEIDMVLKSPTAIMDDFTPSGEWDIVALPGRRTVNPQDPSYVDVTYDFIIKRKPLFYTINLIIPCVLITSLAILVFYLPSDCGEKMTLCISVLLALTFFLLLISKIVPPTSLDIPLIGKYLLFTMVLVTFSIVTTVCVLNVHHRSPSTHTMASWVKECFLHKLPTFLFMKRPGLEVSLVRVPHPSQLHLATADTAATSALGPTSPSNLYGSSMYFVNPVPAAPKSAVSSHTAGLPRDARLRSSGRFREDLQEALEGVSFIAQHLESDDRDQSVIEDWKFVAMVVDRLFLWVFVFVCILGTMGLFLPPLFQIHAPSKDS

α3β2 nAChR = biological target: T4, α3β2 nAChR (Rattus norvegicus, UniProt P04757+P12390); type: cell-based; conditions: SEM
T4 construct: expressed in transfected cells; host or cells: Xenopus oocytes, cRNA injected
T4 sequence (P04757 26-499 limits assumed): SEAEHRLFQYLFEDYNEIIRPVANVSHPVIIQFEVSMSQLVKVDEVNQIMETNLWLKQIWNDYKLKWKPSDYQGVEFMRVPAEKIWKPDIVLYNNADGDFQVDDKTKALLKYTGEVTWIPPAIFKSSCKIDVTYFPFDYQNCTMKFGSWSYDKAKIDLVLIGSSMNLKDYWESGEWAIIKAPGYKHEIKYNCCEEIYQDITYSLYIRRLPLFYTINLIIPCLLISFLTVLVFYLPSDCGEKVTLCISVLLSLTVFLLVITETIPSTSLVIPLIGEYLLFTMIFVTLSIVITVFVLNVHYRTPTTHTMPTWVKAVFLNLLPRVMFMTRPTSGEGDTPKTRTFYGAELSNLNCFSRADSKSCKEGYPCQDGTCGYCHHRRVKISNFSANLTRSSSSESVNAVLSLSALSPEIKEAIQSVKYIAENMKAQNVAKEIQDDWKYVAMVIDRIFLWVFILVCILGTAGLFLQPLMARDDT
T4 sequence (P12390 25-500 limits assumed): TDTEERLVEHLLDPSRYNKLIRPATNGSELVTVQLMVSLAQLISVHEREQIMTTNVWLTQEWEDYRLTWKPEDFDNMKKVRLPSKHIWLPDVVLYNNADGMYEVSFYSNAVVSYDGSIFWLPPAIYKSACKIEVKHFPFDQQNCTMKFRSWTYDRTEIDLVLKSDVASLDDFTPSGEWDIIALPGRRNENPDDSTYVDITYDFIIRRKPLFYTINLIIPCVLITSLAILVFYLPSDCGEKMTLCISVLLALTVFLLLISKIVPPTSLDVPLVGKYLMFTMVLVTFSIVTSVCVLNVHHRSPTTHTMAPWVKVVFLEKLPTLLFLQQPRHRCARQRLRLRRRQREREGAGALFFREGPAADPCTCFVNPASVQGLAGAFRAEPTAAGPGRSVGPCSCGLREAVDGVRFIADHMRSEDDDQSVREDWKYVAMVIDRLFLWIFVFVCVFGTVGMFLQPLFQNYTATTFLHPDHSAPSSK

α3β4 nAChR = biological target: T5, α3β4 nAChR (Rattus norvegicus, UniProt P04757+P12392); type: cell-based; conditions: SEM
T5 construct: expressed in transfected cells; host or cells: Xenopus oocytes, cRNA injected
T5 sequence (P04757 26-499 limits assumed): as the sequence (P04757 26-499 limits assumed) above
T5 sequence (P12392 21-495 limits assumed): as the sequence (P12392 21-495 limits assumed) above

α4β2 nAChR = biological target: T6, α4β2 nAChR (Rattus norvegicus, UniProt P09483+P12390); type: cell-based; conditions: SEM
T6 construct: expressed in transfected cells; host or cells: Xenopus oocytes, cRNA injected

α4β4 nAChR = biological target: T7, α4β4 nAChR (Rattus norvegicus, UniProt P09483+P12392); type: cell-based; conditions: SEM
T7 construct: expressed in transfected cells; host or cells: Xenopus oocytes, cRNA injected

α7 nAChR = biological target: T8, α7 nAChR (Rattus norvegicus, UniProt Q05941); type: cell-based; conditions: SEM
T8 construct: expressed in transfected cells; host or cells: Xenopus oocytes, cRNA injected

α9α10 nAChR = biological target: T9, α9α10 nAChR (Rattus norvegicus, UniProt P43144+Q9JLB5); type: cell-based; conditions: SEM
T9 construct: expressed in transfected cells; host or cells: Xenopus oocytes, cRNA injected
T9 sequence (P43144 26-479 limits assumed): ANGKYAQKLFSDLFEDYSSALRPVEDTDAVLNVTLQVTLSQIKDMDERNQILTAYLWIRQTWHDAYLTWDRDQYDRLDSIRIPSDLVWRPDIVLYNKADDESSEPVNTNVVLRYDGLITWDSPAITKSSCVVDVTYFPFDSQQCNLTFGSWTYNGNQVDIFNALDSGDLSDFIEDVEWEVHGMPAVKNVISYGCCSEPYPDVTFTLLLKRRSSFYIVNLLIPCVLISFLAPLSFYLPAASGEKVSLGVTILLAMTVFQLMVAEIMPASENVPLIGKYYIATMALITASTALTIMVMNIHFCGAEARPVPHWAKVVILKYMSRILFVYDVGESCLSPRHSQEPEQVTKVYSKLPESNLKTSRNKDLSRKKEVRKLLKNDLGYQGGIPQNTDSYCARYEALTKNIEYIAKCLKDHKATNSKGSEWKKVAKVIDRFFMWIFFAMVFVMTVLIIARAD
T9 sequence (Q9JLB5 25-447 limits assumed): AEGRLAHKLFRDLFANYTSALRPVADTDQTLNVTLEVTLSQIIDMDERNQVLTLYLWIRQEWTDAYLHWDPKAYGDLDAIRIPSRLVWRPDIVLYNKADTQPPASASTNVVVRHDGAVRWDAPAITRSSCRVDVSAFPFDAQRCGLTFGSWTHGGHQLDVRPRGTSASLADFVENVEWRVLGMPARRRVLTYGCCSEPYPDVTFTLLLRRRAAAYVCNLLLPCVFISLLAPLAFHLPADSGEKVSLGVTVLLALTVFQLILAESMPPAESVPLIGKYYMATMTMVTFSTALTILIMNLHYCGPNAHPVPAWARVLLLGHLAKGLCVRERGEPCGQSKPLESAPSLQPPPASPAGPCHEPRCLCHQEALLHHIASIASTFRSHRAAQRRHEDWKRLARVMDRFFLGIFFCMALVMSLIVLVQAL

GABABR-coupled CaV2.2 [2] = conditions: cited from earlier work

C[C@@H]1NC(=O)[C@H](Cc2ccccc2)NC(=O)[C@@H]2CSSC[C@H](NC(=O)CN)C(=O)N[C@@H](CSSC[C@@H](C(N)=O)NC(=O)[C@H](CC(=O)O)NC(=O)[C@@H]3CCCN3C(=O)[C@H](CC(N)=O)NC(=O)[C@H]([C@@H](C)O)NC1=O)C(=O)N[C@@H](CO)C(=O)N[C@@H](Cc1ccc(O)cc1)C(=O)N1CCC[C@H]1C(=O)N1CCC[C@H]1C(=O)N2 [AuIB(globular), reference compound]
inhibition at 1 µM (GABABR-coupled CaV2.2 [1]): 27.4 ± 2.05%
IC50 (GABABR-coupled CaV2.2 [1]): 1.93 nM

CC[C@H](C)[C@@H]1NC(=O)[C@H](CC(=O)O)NC(=O)[C@@H]2CCCN2C(=O)[C@H](CC(N)=O)NC(=O)[C@H]([C@@H](C)O)NC(=O)[C@H](C)NC(=O)[C@H](Cc2ccccc2)NC(=O)[C@@H]2CSSC[C@H](NC(=O)CN)C(=O)N[C@@H](CSSC[C@@H](C(N)=O)NC1=O)C(=O)N[C@@H](CO)C(=O)N[C@@H](Cc1ccc(O)cc1)C(=O)N1CCC[C@H]1C(=O)N1CCC[C@H]1C(=O)N2 [AuIB[+15I]]
inhibition at 1 µM (GABABR-coupled CaV2.2 [1]): 30.4 ± 3.26%

CC(C)C[C@@H]1NC(=O)[C@H](CC(=O)O)NC(=O)[C@@H]2CCCN2C(=O)[C@H](CC(N)=O)NC(=O)[C@H]([C@@H](C)O)NC(=O)[C@H](C)NC(=O)[C@H](Cc2ccccc2)NC(=O)[C@@H]2CSSC[C@H](NC(=O)CN)C(=O)N[C@@H](CSSC[C@@H](C(N)=O)NC1=O)C(=O)N[C@@H](CO)C(=O)N[C@@H](Cc1ccc(O)cc1)C(=O)N1CCC[C@H]1C(=O)N1CCC[C@H]1C(=O)N2 [AuIB[+15L]]
inhibition at 1 µM (GABABR-coupled CaV2.2 [1]): 27.9 ± 1.37%

C[C@@H]1NC(=O)[C@H](Cc2ccccc2)NC(=O)[C@@H]2CSSC[C@H](NC(=O)[C@@H](NC(=O)CN)CSSC[C@@H](C(N)=O)NC(=O)[C@H](CC(=O)O)NC(=O)[C@@H]3CCCN3C(=O)[C@H](CC(N)=O)NC(=O)[C@H]([C@@H](C)O)NC1=O)C(=O)N[C@@H](CO)C(=O)N[C@@H](Cc1ccc(O)cc1)C(=O)N1CCC[C@H]1C(=O)N[C@@H](CCCNC(=N)N)C(=O)N2 [AuIB[P7R](ribbon)] (H-GCCSYPRCFATNPDC-NH2; disulfide 2-15, 3-8)
inhibition at 1 µM (GABABR-coupled CaV2.2 [1]): 51.6 ± 1.86%
IC50 (GABABR-coupled CaV2.2 [1]): 0.74 nM
direct inhibitory effect on CaV2.2 (CaV2.2): 14.87 ± 2.42%
Inhibitory effect on α2β4 nAChR (α2β4 nAChR): 39.43 ± 6.31%
Inhibitory effect on α3β2 nAChR (α3β2 nAChR): 29.25 ± 12.65%
Inhibitory effect on α3β4 nAChR (α3β4 nAChR): 39.27 ± 6.45%
Inhibitory effect on α4β2 nAChR (α4β2 nAChR): 35.92 ± 12.50%
Inhibitory effect on α4β4 nAChR (α4β4 nAChR): 30.44 ± 8.03%
Inhibitory effect on α7 nAChR (α7 nAChR): 17.00 ± 0.35%
Inhibitory effect on α9α10 nAChR (α9α10 nAChR): 5.09 ± 7.85%

Vc1.1
IC50 (GABABR-coupled CaV2.2 [2]): 2.38 nM
